Assay results: publication PMC6287599, “2,6-Bis(2-Benzimidazolyl)Pyridine (BBP) Is a Potent and Selective Inhibitor of Small Conductance Calcium-Activated Potassium (SK) Channels” (Frontiers in Pharmacology, 2018)
“Also recorded” adds a separate entry of the source.

Legend:
hSK3 = hSK3 (Homo sapiens, UniProt Q9UGI6); assay: Automated patch clamp (QPatch 16), whole cell, stable HEK293 cell line expressing hSK3; assay type: cell-based; conditions: HEK stable line, 400 nM free intracellular calcium, mean ± SEM, n = 9
Procedure: Three different stable HEK293 cell lines expressing hSK1, hSK2 or hSK3 (NeuroSearch A/S, Ballerup, Denmark) and a CHO stable cell line expressing hERG (University of Copenhagen, Copenhagen, Denmark) were used for automated patch clamp. These cells were cultivated and prepared as previously described (Skarsfeldt et al., [2016]).
Automated patch clamp (QPatch 16, Sophion, Denmark) on SK-expressing HEK293 cell lines was conducted as previously described (Simó-Vicens et al., [2017b]). Briefly, SK currents were elicited by voltage-ramps starting at −80 mV and finishing at +80 mV from a holding potential of 0 mV. Extracellular solution contained 0.1 mM CaCl2, 3 mM MgCl2, 154 mM KCl, 10 mM HEPES and 10 mM glucose with pH 7.4. Intracellular solution for SK experiments contained 8.106 mM CaCl2 (final free calcium concentration of 400 nM), 1.167 mM MgCl2, 10 mM EGTA, 154 mM KCl, 10 mM HEPES, 31.25/ 10 mM KOH/EGTA and 15 mM KOH with pH 7.2. Automated patch clamp on hERG-expressing CHO cell line was performed also as previously described (Skarsfeldt et al., [2016]).
Individual IC50 values were calculated for each cell with the built-in nonlinear fit log(inhibitor) vs. normalized response equation:
Where Y is the normalized response, from 100, corresponding to current recorded during saline perfusion, down to 0, corresponding to currents recorded in the presence of bicuculline methiodide 100 μM. […]

Kir2.1 = target: T1, Kir2.1 (Homo sapiens, UniProt P63252); assay: Two-electrode voltage clamp in Xenopus laevis oocytes, Kir2.1; assay type: cell-based; conditions: BBP 10 μM, TEVC, n = 5
T1 sequence (P63252 1-427): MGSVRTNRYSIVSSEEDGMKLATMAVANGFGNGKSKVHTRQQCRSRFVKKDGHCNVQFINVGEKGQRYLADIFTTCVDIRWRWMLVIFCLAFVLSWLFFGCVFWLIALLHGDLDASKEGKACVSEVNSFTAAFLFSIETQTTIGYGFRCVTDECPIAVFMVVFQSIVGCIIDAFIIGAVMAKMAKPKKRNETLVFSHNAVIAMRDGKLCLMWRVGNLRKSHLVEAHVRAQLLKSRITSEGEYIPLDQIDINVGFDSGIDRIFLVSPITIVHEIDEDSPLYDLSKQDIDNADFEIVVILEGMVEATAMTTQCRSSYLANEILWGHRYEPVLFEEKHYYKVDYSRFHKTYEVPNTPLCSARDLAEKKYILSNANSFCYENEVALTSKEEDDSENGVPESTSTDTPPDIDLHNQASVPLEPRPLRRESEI
Procedure: cRNA was prepared from linearized plasmids using the mMESSAGE mMACHINE T7 kit (Ambion, USA) and quantified by UV spectroscopy (NanoDrop, Thermo Scientific, Wilmington, USA). Xenopus laevis oocytes were acquired from EcoCyte Bioscience (Castrop-Rauxel, Germany). Oocytes were injected with 50 nL cRNA and currents were recorded after 2 days of incubation at 19°C. Currents were recorded at a sampling rate of 10 kHz using a TEVC amplifier (Dagan CA-1B; IL, USA), and borosilicate glass recording electrodes (Module Ohm, Herlev, Denmark), made with a DMZ Universal Puller (Zeitz Instruments, Martinsried, Germany) with a resistance of 0.5–1 MΩ when filled with 2 M KCl. Oocytes were superfused with Kulori (pH 7.4) solution containing NaCl 90 mM, KCl 4 mM, MgCl2 1 mM, CaCl2 1 mM, 4-(2-hydroxyethyl)-1-piperazineethanesulfonic acid 5 mM, and currents were elicited with the voltage protocols previously indicated (Skarsfeldt et al., [2016]), from a holding potential of −80 mV. […]
To assess the effect of BBP on other calcium-activated potassium channels (hBK, hSK3 WT, rSK3 H491N, and hIK), each individual current was first normalized to its cell size using membrane's capacitance (pA/pF) before statistical analysis. […] Statistical significance between saline and the effect of both BBP and the corresponding reference compound was determined for each channel using one-way ANOVA analysis. […]

IC50 (hSK3): 0.4 ± 0.2 µM
SMILES: c1cc(-c2nc3ccccc3[nH]2)nc(-c2nc3ccccc3[nH]2)c1 [BBP, 2,6-Bis(2-benzimidazolyl)pyridine]
Effect on Kir2.1 current (Kir2.1): did not have any effect; also recorded: did not significantly affect
